Assay results reported in US20100261618A1, “Identification of genes implicated in the virulence of streptococcus agalactiae” (priority 2006, published 2010).
Where two headings read alike, the source gives them in different places.

Tests used:
GBS 0582 = molecular target: T1, GBS 0582 (Streptococcus agalactiae, UniProt Q8E126); assay: biochemical; parameters: species or system S. agalactiae
T1 sequence (Q8E126 1-311): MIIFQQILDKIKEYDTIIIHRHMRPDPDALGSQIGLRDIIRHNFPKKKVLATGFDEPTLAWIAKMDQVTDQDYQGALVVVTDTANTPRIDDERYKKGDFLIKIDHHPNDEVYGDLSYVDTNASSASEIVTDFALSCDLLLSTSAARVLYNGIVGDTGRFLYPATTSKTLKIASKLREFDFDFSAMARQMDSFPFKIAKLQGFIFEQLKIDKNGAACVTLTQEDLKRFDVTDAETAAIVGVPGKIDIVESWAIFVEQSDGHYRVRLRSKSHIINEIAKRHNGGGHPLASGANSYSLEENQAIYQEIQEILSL

GBS 0307 = GBS 0307 (Streptococcus agalactiae, UniProt Q8E1N5, T550A); assay: biochemical
GBS 0307, sequence (Q8E1N5 whole entry T550A): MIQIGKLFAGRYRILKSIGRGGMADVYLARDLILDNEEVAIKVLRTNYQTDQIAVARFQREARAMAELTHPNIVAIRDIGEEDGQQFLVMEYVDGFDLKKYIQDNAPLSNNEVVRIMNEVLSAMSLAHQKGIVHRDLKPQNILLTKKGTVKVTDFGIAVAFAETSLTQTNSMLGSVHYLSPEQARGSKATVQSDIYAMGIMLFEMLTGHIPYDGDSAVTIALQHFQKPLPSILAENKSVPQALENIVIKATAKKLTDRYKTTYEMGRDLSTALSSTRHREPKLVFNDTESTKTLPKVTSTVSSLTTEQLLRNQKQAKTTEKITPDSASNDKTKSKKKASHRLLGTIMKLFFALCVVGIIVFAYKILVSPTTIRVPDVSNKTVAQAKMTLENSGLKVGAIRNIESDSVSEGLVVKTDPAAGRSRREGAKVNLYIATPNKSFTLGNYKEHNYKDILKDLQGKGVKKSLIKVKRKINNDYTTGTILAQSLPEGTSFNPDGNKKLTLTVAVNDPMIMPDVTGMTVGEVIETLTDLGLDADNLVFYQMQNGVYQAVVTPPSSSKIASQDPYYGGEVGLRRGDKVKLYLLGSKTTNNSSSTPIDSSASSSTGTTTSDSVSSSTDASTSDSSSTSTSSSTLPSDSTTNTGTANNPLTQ

[1] = tested on: S. agalactiae NEM316 wild type strain; assay: Sensitivity to colistin (MIC) of the wild type strain
Description: Screening for sensitivity to cationic peptide colistin and cell wall defect of the mutant library. The S. agalactiae mutants were grown TH-Kn in 96-wells microplates over-night. Bacteria were then diluted to 1:1000 and each dilution was dispatched into two microplates. In one microplate 50 μl of TH was added, whereas 50 μl of 512 μg/ml colistin (Sigma) or 2 μg/ml novobiocin (Sigma) was added in the other thus obtaining final concentrations of 256 μg/ml and 1 μg/ml, respectively. Microplates were incubated overnight at 37° C. OD600 of microplates was read on a Multiskan Ex apparatus (Thermo).

Nc1ncnc2c1ncn2[C@@H]1O[C@H](COP(=O)(O)OP(=O)(O)O)[C@@H](O)[C@H]1O [ADP]
IC50 (GBS 0582; read-out: IC50): 405 µM

CN[C@@H]1C[C@H]2O[C@@](C)([C@@H]1OC)n1c3ccccc3c3c4c(c5c6ccccc6n2c5c31)C(=O)NC4 [Staurosporine]
IC50 (GBS 0307): 0.023 ± 0.008 µM

Nc1ncnc2c1ncn2[C@@H]1O[C@H](COP(=O)(O)O)[C@@H](O)[C@H]1O [AMP, Adenosine monophosphate]
IC50 (GBS 0582): 235 ± 45 µM

colistin
CMI [1]: ≤ 1024 µg/mL
